Like-named read-outs stand apart in the source and are kept apart here.
Tested on: MV4:11 human cancer cell lines
Assay: Cellular viability / anti-proliferative activity, CellTiter-Glo, 5 day protocol
Type: cell-based
Settings: MV4:11 cells, 5 day incubation, CellTiter-Glo, mean of minimum two replicates, read-out: GI50 on cellular proliferation of MV4:11 human cancer cell lines
Method in brief: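 Cells seeded at 200 per well (7200 cells/mL) with compound in 2-fold serial dilutions from 30 μM top (22 points), 0.3% DMSO final. Viability read by CellTiter-Glo luminescence after 5 days; GI50 from sigmoidal dose-response fit, mean of at least two replicates.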

`COc1ccnc(CN2Cc3c(cc(Cn4ccn(C)c4=N)cc3-c3ccc(F)cc3C)C2=O)c1` [Example 138, 4-(4-Fluoro-2-methylphenyl)-6-((2-imino-3-methyl-2,3-dihydro-1H-imidazol-1-yl)methyl)-2-((4-methoxypyridin-2-yl)methyl)isoindolin-1-one] showed a GI50 (Homo sapiens, MV4-11, 120 h) of 2280 nM.

`COc1ccnc(CN2Cc3c(cc(Cn4ccn(C)c4=N)cc3-c3cccnc3C)C2=O)c1` [Example 139, 6-((2-Imino-3-methyl-2,3-dihydro-1H-imidazol-1-yl)methyl)-2-((4-methoxypyridin-2-yl)methyl)-4-(2-methylpyridin-3-yl)isoindolin-1-one] showed a GI50 (Homo sapiens, MV4-11, 120 h) greater than 938 nM.

In the case of `COc1cc(CN2CCCc3c(cc(Cn4ccn(C)c4=N)cc3-c3ccc(F)cc3C)C2=O)cc(OC)c1` [Example 140, 2-(3,5-Dimethoxybenzyl)-6-(4-fluoro-2-methylphenyl)-8-((2-imino-3-methyl-2,3-dihydro-1H-imidazol-1-yl)methyl)-2,3,4,5-tetrahydro-1H-benzo[c]azepin-1-one], the GI50 (Homo sapiens, MV4-11, 120 h) is reported as 200 nM.

For `COc1cc(CN2CCCc3c(cc(Cn4ccnc4C)cc3-c3ccc(F)cc3C)C2=O)cc(OC)c1` [Example 141, 2-(3,5-dimethoxybenzyl)-6-(4-fluoro-2-methylphenyl)-8-((2-methyl-1H-imidazol-1-yl)methyl)-2,3,4,5-tetrahydro-1H-benzo[c]azepin-1-one], the GI50 (Homo sapiens, MV4-11, 120 h) was greater than 938 nM.

With `Cc1cc([C@H](C)N2CCc3c(cc(CNc4cccc(=O)[nH]4)cc3-c3cn(C)nc3C(F)(F)F)C2=O)ccc1F` [Example 142, (S)-2-(1-(4-Fluoro-3-methylphenyl)ethyl)-5-(1-methyl-3-(trifluoromethyl)-1H-pyrazol-4-yl)-7-(((6-oxo-1,6-dihydropyridin-2-yl)amino)methyl)-3,4-dihydroisoquinolin-1(2H)-one] the GI50 (Homo sapiens, MV4-11, 120 h) was greater than 938 nM.

Work on `Cc1cc([C@H](C)N2CCc3c(cc(Cn4ccn(C)c4=N)cc3-c3cn(C)nc3C)C2=O)ccc1F` [Example 143, (S)-5-(1,3-Dimethyl-1H-pyrazol-4-yl)-2-(1-(4-fluoro-3-methylphenyl)ethyl)-7-((2-imino-3-methyl-2,3-dihydro-1H-imidazol-1-yl)methyl)-3,4-dihydroisoquinolin-1(2H)-one] yielded a GI50 (Homo sapiens, MV4-11, 120 h) of less than 50 nM.

In the case of `COc1cc(CN2CCc3c(cc(Cn4ncnc4C)cc3-c3ccc(F)cc3C)C2=O)cc(OC)c1` [Example 144, 2-(3,5-Dimethoxybenzyl)-5-(4-fluoro-2-methylphenyl)-7-((5-methyl-1H-1,2,4-triazol-1-yl)methyl)-3,4-dihydroisoquinolin-1(2H)-one], the GI50 (Homo sapiens, MV4-11, 120 h) is reported as greater than 938 nM.

Work on `COc1cc(CN2CCc3c(cc(Cn4cnnc4C)cc3-c3ccc(F)cc3C)C2=O)cc(OC)c1` [Example 145, 2-(3,5-Dimethoxybenzyl)-5-(4-fluoro-2-methylphenyl)-7-((3-methyl-4H-1,2,4-triazol-4-yl)methyl)-3,4-dihydroisoquinolin-1(2H)-one] yielded a GI50 (Homo sapiens, MV4-11, 120 h) greater than 938 nM.

`Cc1cc([C@H](C)N2CCc3c(cc(Cn4ccnc4C)cc3-c3cn(C)nc3C)C2=O)ccc1F` [Example 146, (S)-5-(1,3-Dimethyl-1H-pyrazol-4-yl)-2-(1-(4-fluoro-3-methylphenyl)ethyl)-7-((2-methyl-1H-imidazol-1-yl)methyl)-3,4-dihydroisoquinolin-1(2H)-one] was tested, and the GI50 (Homo sapiens, MV4-11, 120 h) was less than 50 nM.

`Cn1cc(-c2cc(Cn3ccn(C)c3=N)cc3c2CCN(Cc2cc(C4CC4)nn2C)C3=O)c(C(F)(F)F)n1` [Example 147, 2-((3-Cyclopropyl-1-methyl-1H-pyrazol-5-yl)methyl)-7-((2-imino-3-methyl-2,3-dihydro-1H-imidazol-1-yl)methyl)-5-(1-methyl-3-(trifluoromethyl)-1H-pyrazol-4-yl)-3,4-dihydroisoquinolin-1(2H)-one] gave a GI50 (Homo sapiens, MV4-11, 120 h) of 73 nM and a GI50 of 81 nM.

In the case of `Cc1nccn1Cc1cc2c(c(-c3cn(C)nc3C(F)(F)F)c1)CCN(Cc1cc(C3CC3)nn1C)C2=O` [Example 148, 2-((3-Cyclopropyl-1-methyl-1H-pyrazol-5-yl)methyl)-7-((2-methyl-1H-imidazol-1-yl)methyl)-5-(1-methyl-3-(trifluoromethyl)-1H-pyrazol-4-yl)-3,4-dihydroisoquinolin-1(2H)-one], the GI50 (Homo sapiens, MV4-11, 120 h) is reported as less than 50 nM.

`CCc1ccnc(CN2CCc3c(cc(Cn4ccnc4CC)cc3-c3cn(CC)nc3C(F)(F)F)C2=O)c1` [Example 149, 7-((2-Ethyl-1H-imidazol-1-yl)methyl)-5-(1-ethyl-3-(trifluoromethyl)-1H-pyrazol-4-yl)-2-((4-ethylpyridin-2-yl)methyl)-3,4-dihydroisoquinolin-1(2H)-one] showed a GI50 (Homo sapiens, MV4-11, 120 h) of less than 50 nM.

`Cn1cc(-c2cc(Cn3ccoc3=N)cc3c2CCN(Cc2cc(C4CC4)nn2C)C3=O)c(C(F)(F)F)n1` [Example 150, 2-((3-Cyclopropyl-1-methyl-1H-pyrazol-5-yl)methyl)-7-((2-iminooxazol-3(2H)-yl)methyl)-5-(1-methyl-3-(trifluoromethyl)-1H-pyrazol-4-yl)-3,4-dihydroisoquinolin-1(2H)-one] showed a GI50 (Homo sapiens, MV4-11, 120 h) of less than 50 nM.

In the case of `CCn1cc(-c2cc(CN3CCSC3=N)cc3c2CCN([C@@H](C)c2cc(OC)ccn2)C3=O)c(C(F)(F)F)n1` [Example 151, (S)-5-(1-Ethyl-3-(trifluoromethyl)-1H-pyrazol-4-yl)-7-((2-iminothiazolidin-3-yl)methyl)-2-(1-(4-methoxypyridin-2-yl)ethyl)-3,4-dihydroisoquinolin-1(2H)-one], the GI50 (Homo sapiens, MV4-11, 120 h) is reported as less than 50 nM.

With `CCn1cc(-c2cc(Cn3cnn(C)c3=N)cc3c2CCN([C@@H](C)c2cc(OC)ccn2)C3=O)c(C(F)(F)F)n1` [Example 152, (S)-5-(1-ethyl-3-(trifluoromethyl)-1H-pyrazol-4-yl)-7-((5-imino-1-methyl-1,5-dihydro-4H-1,2,4-triazol-4-yl)methyl)-2-(1-(4-methoxypyridin-2-yl)ethyl)-3,4-dihydroisoquinolin-1(2H)-one] the GI50 (Homo sapiens, MV4-11, 120 h) was less than 50 nM.

`COc1cc(CN2CCc3c(cc(Cn4ccn(C)c4=N)cc3-c3nc(C)cn3C)C2=O)cc(OC)c1` [Example 153, 2-(3,5-Dimethoxybenzyl)-5-(1,4-dimethyl-1H-imidazol-2-yl)-7-((2-imino-3-methyl-2,3-dihydro-1H-imidazol-1-yl)methyl)-3,4-dihydroisoquinolin-1(2H)-one] was tested, and the GI50 (Homo sapiens, MV4-11, 120 h) was greater than 938 nM.

`COc1cc(CN2CCc3c(cc(Cn4ccn(C)c4=N)cc3-c3cc(C)nc(C)c3)C2=O)cc(OC)c1` [Example 154, 2-(3,5-Dimethoxybenzyl)-5-(2,6-dimethylpyridin-4-yl)-7-((2-imino-3-methyl-2,3-dihydro-1H-imidazol-1-yl)methyl)-3,4-dihydroisoquinolin-1(2H)-one] was tested, and the GI50 (Homo sapiens, MV4-11, 120 h) was 559 nM.

For `CCc1nccn1Cc1cc2c(c(-c3cc(C)nc(C)c3)c1)CCN(Cc1cc(OC)cc(OC)c1)C2=O` [Example 155, 2-(3,5-Dimethoxybenzyl)-5-(2,6-dimethylpyridin-4-yl)-7-((2-ethyl-1H-imidazol-1-yl)methyl)-3,4-dihydroisoquinolin-1(2H)-one], the GI50 (Homo sapiens, MV4-11, 120 h) was 407 nM.

`CCn1cc(-c2cc(Cn3ccnc3C)cc3c2CCN([C@@H](C)c2cc(OC)ccn2)C3=O)c(C(F)(F)F)n1` [Example 156, (S)-5-(1-Ethyl-3-(trifluoromethyl)-1H-pyrazol-4-yl)-2-(1-(4-methoxypyridin-2-yl)ethyl)-7-((2-methyl-1H-imidazol-1-yl)methyl)-3,4-dihydroisoquinolin-1(2H)-one] was tested, and the GI50 (Homo sapiens, MV4-11, 120 h) was less than 50 nM.
